Measurements reported in patent US9914722B2, “Compounds for treating spinal muscular atrophy” (PTC Therapeutics Inc., priority 2012, dated 2018).

Experiments:
[1] = tested on: Smn protein; assay: Smn protein assay (Smn HTRF) in cultured cells; type: cell-based, human; details: Homo sapiens, Fibroblast, GM03813 SMA Type 1 patient fibroblasts, 48 hours, HTRF; for maximal fold induction: 7-point concentration data, relative to vehicle, read-out: maximum fold (Fold) increase of Smn protein; for EC (1.5-fold): concentration producing 1.5 times Smn protein vs DMSO vehicle, read-out: EC1.5x for Smn protein expression
Procedure, shortened: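 SMA patient fibroblasts (5,000/well) were exposed to a 7-point, 3.16-fold compound dilution series for 48 hours at 37° C, in triplicate. Lysates were read by HTRF with anti-SMN d2/kryptate at 665/620 nm. Blank-corrected signal was expressed as fold over DMSO vehicle, giving the EC1.5x and the maximum fold increase.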

[2] = tested on: full length SMN2 minigene mRNA containing SMN2 exon 7 (SMN2-A minigene); assay: SMN2 minigene mRNA splicing RT-qPCR assay in cultured cells; type: cell-based, human; details: Homo sapiens, HEK293-H; HEK293H cells stably transfected with SMN2-A minigene, 24 hours, 7-point concentration curve; concentration giving 1.5-fold SMN2 full length mRNA vs vehicle; read-out: EC1.5x for production of full length SMN2 mRNA
Procedure, shortened: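 HEK293H cells stably carrying the SMN2-A minigene were treated 24 h at 37 °C with a 7-point, 3.16-fold test compound series, in duplicate. Multiplex RT-qPCR measured exon 7-containing minigene FL mRNA, normalized to GAPDH and expressed relative to vehicle; EC1.5x is the concentration giving 1.5-fold FL mRNA.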

Structure (SMILES)	maximal fold induction [1]	EC (1.5-fold) [1] [µM]	EC (1.5-fold) [2] [µM]	melting point [°C]
COc1cc(F)c(-c2cc(=O)c3cc(N4CCN[C@@H](C)C4)ccc3o2)cc1OC [Cpd 46, 2-(2-fluoro-4,5-dimethoxyphenyl)-6-[(3S)-3-methylpiperazin-1-yl]-4H-chromen-4-one]	1.5 to 1.65	1 to 3	0.3 to 1	179 to 181
COc1cc(F)c(-c2cc(=O)c3cc(N4C[C@@H](C)N[C@@H](C)C4)ccc3o2)cc1OC [Cpd 47, 6-[(3R,5S)-3,5-dimethylpiperazin-1-yl]-2-(2-fluoro-4,5-dimethoxyphenyl)-4H-chromen-4-one]	1.5 to 1.65	1 to 3	1 to 3	164 to 166
COc1cc(F)c(-c2cc(=O)c3cc(N4CCN[C@H](C)C4)ccc3o2)cc1OC [Cpd 48, 2-(2-fluoro-4,5-dimethoxyphenyl)-6-[(3R)-3-methylpiperazin-1-yl]-4H-chromen-4-one]	1.5 to 1.65	1 to 3	1 to 3	180 to 182
CC(C)Oc1ccc(-c2cc(=O)c3cc(N4CCNCC4)ccc3o2)cc1 [Cpd 49, 6-(piperazin-1-yl)-2-[4-(propan-2-yloxy)phenyl]-4H-chromen-4-one]	≤ 1.2		1 to 3	126 to 128
CC(C)Oc1ccc(-c2cc(=O)c3cc(N4CCN[C@@H](C)C4)ccc3o2)cc1 [Cpd 50, 6-[(3S)-3-methylpiperazin-1-yl]-2-[4-(propan-2-yloxy)phenyl]-4H-chromen-4-one]	≤ 1.2		1 to 3	128 to 130
COc1ccc(-c2cc(=O)c3cc(N4CCNCC4)ccc3o2)cc1C [Cpd 51, 2-(4-methoxy-3-methylphenyl)-6-(piperazin-1-yl)-4H-chromen-4-one]	1.35 to 1.5		0.3 to 1	98 to 100
COc1ccc(-c2cc(=O)c3cc(N4CCN[C@@H](C)C4)ccc3o2)cc1C [Cpd 52, 2-(4-methoxy-3-methylphenyl)-6-[(3S)-3-methylpiperazin-1-yl]-4H-chromen-4-one]	1.35 to 1.5		0.1 to 0.3	174 to 176
COc1ccc(-c2cc(=O)c3cc(N4C[C@@H](C)N[C@@H](C)C4)ccc3o2)cc1C [Cpd 53, 6-[(3R,5S)-3,5-dimethylpiperazin-1-yl]-2-(4-methoxy-3-methylphenyl)-4H-chromen-4-one]	1.2 to 1.35		0.3 to 1	186 to 188
COc1ccc(-c2cc(=O)c3cc(N4CCN[C@H](C)C4)ccc3o2)cc1C [Cpd 54, 2-(4-methoxy-3-methylphenyl)-6-[(3R)-3-methylpiperazin-1-yl]-4H-chromen-4-one]	1.2 to 1.35		0.3 to 1	164 to 166
COc1ccc(-c2cc(=O)c3cc(N4CCNCC4)ccc3o2)cn1 [Cpd 55, 2-(6-methoxypyridin-3-yl)-6-(piperazin-1-yl)-4H-chromen-4-one]	1.2 to 1.35		0.3 to 1	165 to 170
COc1ccc(-c2cc(=O)c3cc(N4CCN[C@@H](C)C4)ccc3o2)cn1 [Cpd 56, 2-(6-methoxypyridin-3-yl)-6-[(3S)-3-methylpiperazin-1-yl]-4H-chromen-4-one]	1.35 to 1.5		0.3 to 1	196 to 200
COc1ccc(-c2cc(=O)c3cc(N4CCN[C@H](C)C4)ccc3o2)cn1 [Cpd 57, 2-(6-methoxypyridin-3-yl)-6-[(3R)-3-methylpiperazin-1-yl]-4H-chromen-4-one]	1.2 to 1.35		0.3 to 1	198 to 200
COc1ccc(-c2cc(=O)c3cc(N4CCNCC4)ccc3o2)cc1Cl [Cpd 58, 2-(3-chloro-4-methoxyphenyl)-6-(piperazin-1-yl)-4H-chromen-4-one]	1.35 to 1.5	1 to 3	≤ 0.1	145 to 150
COc1ccc(-c2cc(=O)c3cc(N4CCN[C@@H](C)C4)ccc3o2)cc1Cl [Cpd 59, 2-(3-chloro-4-methoxyphenyl)-6-[(3S)-3-methylpiperazin-1-yl]-4H-chromen-4-one]	1.5 to 1.65	≤ 0.3	≤ 0.1	172 to 174
COc1ccc(-c2cc(=O)c3cc(N4C[C@@H](C)N[C@@H](C)C4)ccc3o2)cc1Cl [Cpd 60, 2-(3-chloro-4-methoxyphenyl)-6-[(3R,5S)-3,5-dimethylpiperazin-1-yl]-4H-chromen-4-one]	> 1.65	1 to 3	0.1 to 0.3	176 to 178
COc1ccc(-c2cc(=O)c3cc(N4CCN[C@H](C)C4)ccc3o2)cc1Cl [Cpd 61, 2-(3-chloro-4-methoxyphenyl)-6-[(3R)-3-methylpiperazin-1-yl]-4H-chromen-4-one]	1.2 to 1.35		0.1 to 0.3	170 to 172
COc1ccc(-c2cc(=O)c3cc(N4CCNCC4)ccc3o2)cc1 [Cpd 62, 2-(4-methoxyphenyl)-6-(piperazin-1-yl)-4H-chromen-4-one]	1.2 to 1.35		0.1 to 0.3	166 to 170
COc1ccc(-c2cc(=O)c3cc(N4CCN[C@@H](C)C4)ccc3o2)cc1 [Cpd 63, 2-(4-methoxyphenyl)-6-[(3S)-3-methylpiperazin-1-yl]-4H-chromen-4-one]	1.5 to 1.65	0.3 to 1	0.1 to 0.3	155 to 160
O=c1cc(-c2ccc(OC(F)(F)F)cc2)oc2ccc(N3CCNCC3)cc12 [Cpd 64, 6-(piperazin-1-yl)-2-[4-(trifluoromethoxy)phenyl]-4H-chromen-4-one]	≤ 1.2		0.3 to 1	146 to 148
C[C@H]1CN(c2ccc3oc(-c4ccc(OC(F)(F)F)cc4)cc(=O)c3c2)CCN1 [Cpd 65, 6-[(3S)-3-methylpiperazin-1-yl]-2-[4-(trifluoromethoxy)phenyl]-4H-chromen-4-one]	≤ 1.2		1 to 3	138 to 140
O=c1cc(-c2cccc(F)c2)oc2ccc(N3CCNCC3)cc12 [Cpd 66, 2-(3-fluorophenyl)-6-(piperazin-1-yl)-4H-chromen-4-one]	1.35 to 1.5		0.1 to 0.3	150 to 152
O=c1cc(-c2cccc(C(F)(F)F)c2)oc2ccc(N3CCNCC3)cc12 [Cpd 67, 6-(piperazin-1-yl)-2-[3-(trifluoromethyl)phenyl]-4H-chromen-4-one]	1.5 to 1.65	0.3 to 1	0.1 to 0.3	174 to 176
COc1ccc(-c2cc(=O)c3cc(N4CCNCC4)ccc3o2)cc1OC(F)(F)F [Cpd 68, 2-[4-methoxy-3-(trifluoromethoxy)phenyl]-6-(piperazin-1-yl)-4H-chromen-4-one]	≤ 1.2		0.3 to 1	104 to 106
COc1ccc(-c2cc(=O)c3cc(N4CCNCC4)ccc3o2)cc1C(F)(F)F [Cpd 69, 2-[4-methoxy-3-(trifluoromethyl)phenyl]-6-(piperazin-1-yl)-4H-chromen-4-one]	1.35 to 1.5		0.3 to 1	128 to 132
COc1ccc(-c2cc(=O)c3cc(N4CCN[C@@H](C)C4)ccc3o2)cc1OC(F)(F)F [Cpd 70, 2-[4-methoxy-3-(trifluoromethoxy)phenyl]-6-[(3S)-3-methylpiperazin-1-yl]-4H-chromen-4-one]	1.2 to 1.35		0.3 to 1	142 to 146
COc1ccc(-c2cc(=O)c3cc(N4CCN[C@@H](C)C4)ccc3o2)cc1C(F)(F)F [Cpd 71, 2-[4-methoxy-3-(trifluoromethyl)phenyl]-6-[(3S)-3-methylpiperazin-1-yl]-4H-chromen-4-one]	1.35 to 1.5	3 to 10	0.1 to 0.3	182 to 184
Cc1cn2cc(-c3cc(=O)c4cc(N5CCN[C@@H](C)C5)ccc4o3)nc2cn1 [Cpd 73, 2-(6-methylimidazo[1,2-a]pyrazin-2-yl)-6-[(3S)-3-methylpiperazin-1-yl]-4H-chromen-4-one]	> 1.65	≤ 0.3	≤ 0.1	212 to 216
O=c1cc(-c2cncc(F)c2)oc2ccc(N3CCNCC3)cc12 [Cpd 74, 2-(5-fluoropyridin-3-yl)-6-(piperazin-1-yl)-4H-chromen-4-one]	1.5 to 1.65	1 to 3	0.3 to 1	182 to 184
C[C@H]1CN(c2ccc3oc(-c4cncc(F)c4)cc(=O)c3c2)CCN1 [Cpd 75, 2-(5-fluoropyridin-3-yl)-6-[(3S)-3-methylpiperazin-1-yl]-4H-chromen-4-one]	1.5 to 1.65	1 to 3	0.3 to 1	168 to 172
